Data: the supplement of paper PMC11061612

Legend:
Olaparib = compound: O=C(c1cc(Cc2n[nH]c(=O)c3ccccc23)ccc1F)N1CCN(C(=O)C2CC2)CC1 [Olaparib]; details: max 10 µM
How it was run: (§1)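 Cancer cell lines were dosed for 72 hours (final DMSO typically 0.2%) after 24 hours at 37°C and 5% CO2 in 1536-well plates containing 7.5 μl DMEM/F12 or RPMI with 10% FBS. Viability came from CellTiter-Glo 2.0 luminescence, scaled between blank-well and DMSO-well means, and dose responses were fitted to a two-parameter logistic curve with a non-linear mixed effects model. The single-agent IC50 was obtained from this fit.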

Selumetinib = compound: Cn1cnc2c(F)c(Nc3ccc(Br)cc3Cl)c(C(=O)NOCCO)cc21 [Selumetinib]; details: max 10 µM
How it was run: as §1

AZD2811 = compound: CCN(CCO)CCCOc1ccc2c(Nc3cc(CC(=O)Nc4cccc(F)c4)[nH]n3)ncnc2c1 [AZD2811]; details: max 1 µM
How it was run: as §1

SG3199 = compound: CC1=CN2[C@@H](C1)C=NC3=CC(=C(C=C3C2=O)OC)OCCCCCOC4=C(C=C5C(=C4)N=C[C@@H]6CC(=CN6C5=O)C)OC [SG3199]; details: max 0.001 µM
How it was run: as §1

Trametinib = compound: CC(=O)Nc1cccc(-n2c(=O)n(C3CC3)c(=O)c3c(Nc4ccc(I)cc4F)n(C)c(=O)c(C)c32)c1 [Trametinib]; details: max 1 µM
How it was run: as §1

Palbociclib = compound: CC(=O)c1c(C)c2cnc(Nc3ccc(N4CCNCC4)cn3)nc2n(C2CCCC2)c1=O [Palbociclib]; details: max 10 µM
How it was run: as §1

Doxorubicin = compound: COc1cccc2c1C(=O)c1c(O)c3c(c(O)c1C2=O)C[C@@](O)(C(=O)CO)C[C@@H]3O[C@H]1C[C@H](N)[C@H](O)[C@H](C)O1 [Doxorubicin]; details: max 1 µM
How it was run: as §1

Taselisib = compound: Cc1nc(-c2cn3c(n2)-c2ccc(-c4cnn(C(C)(C)C(N)=O)c4)cc2OCC3)n(C(C)C)n1 [Taselisib]; details: max 10 µM
How it was run: as §1

AZD6738 = compound: C[C@@H]1COCCN1C2=NC(=NC(=C2)C3(CC3)[S@](=N)(=O)C)C4=C5C=CNC5=NC=C4 [AZD6738]; details: max 10 µM
How it was run: as §1

AZD0156 = compound: CN(C)CCCOc1ccc(-c2ccc3ncc4c(c3c2)n(C2CCOCC2)c(=O)n4C)cn1 [AZD0156]; details: max 3 µM
How it was run: as §1

Prexasertib = compound: COc1cccc(OCCCN)c1-c1cc(Nc2cnc(C#N)cn2)n[nH]1 [Prexasertib]; details: max 1 µM
How it was run: as §1

Venetoclax = compound: CC1(C)CCC(CN2CCN(c3ccc(C(=O)NS(=O)(=O)c4ccc(NCC5CCOCC5)c([N+](=O)[O-])c4)c(Oc4cnc5[nH]ccc5c4)c3)CC2)=C(c2ccc(Cl)cc2)C1 [Venetoclax]; details: max 1 µM
How it was run: as §1

AZD4320 = compound: CN(CC[C@H](CSC1=CC=CC=C1)NC2=C(C=C(C=C2)S(=O)(=O)NC(=O)C3=CC=C(C=C3)N4CCC(CC4)[C@H](C5=CC=CC=C5C6=CC=C(C=C6)Cl)O)S(=O)(=O)C(F)(F)F)CCO [AZD4320]; details: max 1 µM
How it was run: as §1

AZD5991 = compound: Cc1c2c(nn1C)CSCc1cc(n(C)n1)CSc1cc(c3ccccc3c1)OCCCc1c(C(=O)O)n(C)c3c-2c(Cl)ccc13 [AZD5991]; details: max 1 µM
How it was run: as §1

MK-2206 = compound: NC1(c2ccc(-c3nc4ccn5c(=O)[nH]nc5c4cc3-c3ccccc3)cc2)CCC1 [MK-2206]; details: max 10 µM
How it was run: as §1

SN-38 = compound: CCc1c2c(nc3ccc(O)cc13)-c1cc3c(c(=O)n1C2)COC(=O)[C@]3(O)CC [SN-38]; details: max 0.3 µM
How it was run: as §1

AZD1775 = compound: C=CCn1c(=O)c2cnc(Nc3ccc(N4CCN(C)CC4)cc3)nc2n1-c1cccc(C(C)(C)O)n1 [AZD1775]; details: max 3 µM
How it was run: as §1

Dasatinib = compound: CC1=C(C(=CC=C1)Cl)NC(=O)C2=CN=C(S2)NC3=CC(=NC(=N3)C)N4CCN(CC4)CCO [Dasatinib]; details: max 2 µM
How it was run: as §1

Alisertib = compound: COc1cc(Nc2ncc3c(n2)-c2ccc(Cl)cc2C(c2c(F)cccc2OC)=NC3)ccc1C(=O)O [Alisertib]; details: max 10 µM
How it was run: as §1

AZD1390 = compound: CC(C)n1c(=O)n(C)c2cnc3cc(F)c(-c4ccc(OCCCN5CCCCC5)nc4)cc3c21 [AZD1390]; details: max 0.3 µM
How it was run: as §1

Crizotinib = compound: C[C@@H](Oc1cc(-c2cnn(C3CCNCC3)c2)cnc1N)c1c(Cl)ccc(F)c1Cl [Crizotinib]; details: max 10 µM
How it was run: as §1

AZD5153 = compound: COc1nnc2ccc(N3CCC(c4ccc(OCCN5CCN(C)C(=O)[C@H]5C)cc4)CC3)nn12 [AZD5153]; details: max 1 µM
How it was run: as §1

Capivasertib = compound: C1CN(CCC1(C(=O)N[C@@H](CCO)C2=CC=C(C=C2)Cl)N)C3=NC=NC4=C3C=CN4 [Capivasertib]; details: max 10 µM
How it was run: as §1

Savolitinib = compound: C[C@@H](c1ccc2nccn2c1)n1nnc2ncc(-c3cnn(C)c3)nc21 [Savolitinib]; details: max 1 µM
How it was run: as §1

AZD7648 = compound: Cc1cc2ncnn2cc1Nc1ncc2c(n1)n(C1CCOCC1)c(=O)n2C [AZD7648]; details: max 10 µM
How it was run: as §1

AZD8186 = compound: C[C@@H](Nc1cc(F)cc(F)c1)c1cc(C(=O)N(C)C)cc2c(=O)cc(N3CCOCC3)oc12 [AZD8186]; details: max 3 µM
How it was run: as §1

Gefitinib = compound: COc1cc2ncnc(Nc3ccc(F)c(Cl)c3)c2cc1OCCCN1CCOCC1 [Gefitinib]; details: max 10 µM
How it was run: as §1

Lapatinib = compound: CS(=O)(=O)CCNCc1ccc(-c2ccc3ncnc(Nc4ccc(OCc5cccc(F)c5)c(Cl)c4)c3c2)o1 [Lapatinib]; details: max 10 µM
How it was run: as §1

| Cell Line | IC50, cell viability 72 h (Olaparib) [µM] | IC50, cell viability 72 h (Selumetinib) [µM] | IC50, cell viability 72 h (AZD2811) [µM] | IC50, cell viability 72 h (SG3199) [µM] | IC50, cell viability 72 h (Trametinib) [µM] | IC50, cell viability 72 h (Palbociclib) [µM] | IC50, cell viability 72 h (Doxorubicin) [µM] | IC50, cell viability 72 h (Taselisib) [µM] | IC50, cell viability 72 h (AZD6738) [µM] | IC50, cell viability 72 h (AZD0156) [µM] | IC50, cell viability 72 h (Prexasertib) [µM] | IC50, cell viability 72 h (Venetoclax) [µM] | IC50, cell viability 72 h (AZD4320) [µM] | IC50, cell viability 72 h (AZD5991) [µM] | IC50, cell viability 72 h (MK-2206) [µM] | IC50, cell viability 72 h (SN-38) [µM] | IC50, cell viability 72 h (AZD1775) [µM] | IC50, cell viability 72 h (Dasatinib) [µM] | IC50, cell viability 72 h (Alisertib) [µM] | IC50, cell viability 72 h (AZD1390) [µM] | IC50, cell viability 72 h (Crizotinib) [µM] | IC50, cell viability 72 h (AZD5153) [µM] | IC50, cell viability 72 h (Capivasertib) [µM] | IC50, cell viability 72 h (Savolitinib) [µM] | IC50, cell viability 72 h (AZD7648) [µM] | IC50, cell viability 72 h (AZD8186) [µM] | IC50, cell viability 72 h (Gefitinib) [µM] | IC50, cell viability 72 h (Lapatinib) [µM] |
| --- | --- | --- | --- | --- | --- | --- | --- | --- | --- | --- | --- | --- | --- | --- | --- | --- | --- | --- | --- | --- | --- | --- | --- | --- | --- | --- | --- | --- |
| HGC-27 (Gastric Carcinoma) | > 10 | > 10 | 0.0941 | > 0.001 | > 1 | 3.21 | 0.146 | 0.0611 | 2.84 | > 3 | 0.0768 | > 1 | > 1 | > 1 | 0.501 | 0.0146 | 2.24 | 0.349 | 0.164 | > 0.3 | 3.25 | 0.0548 | 0.346 | > 1 | > 10 | 2.38 | > 10 | 4.94 |
| HSC-4 (Oral Cavity Carcinoma) | > 10 | > 10 | > 1 | > 0.001 | > 1 | > 10 | > 1 | > 10 | 7.28 | > 3 | 0.205 | > 1 | > 1 | > 1 | > 10 | 0.0112 | > 3 | > 2 | > 10 | > 0.3 | > 10 | > 1 | > 10 | > 1 | > 10 | > 3 | > 10 | > 10 |
| NCI-H1915 (Non-Small Cell Lung Carcinoma) | > 10 | 3.91 | > 1 | > 0.001 | 0.0347 | > 10 | > 1 | > 10 | > 10 | > 3 | 0.335 | > 1 | > 1 | > 1 |  | 0.0616 | 2.87 | 0.567 | 5.15 | > 0.3 | > 10 | > 1 | > 10 | > 1 | > 10 | > 3 | > 10 | > 10 |
